In the supplement of paper PMC5844555:

How the values were obtained:
Test in all cases: 3' UTR reporter interaction score (median-centred robust z-score of log2 firefly/Renilla activity); higher = less repression of the 3' UTR reporter
Details in all cases: HEK293T; 48 h
ZEB2 = tested on: ZEB2
How it was run: (§1)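 The interaction score is based on the log-transformed firefly/Renilla luciferase ratio, scaled as a robust z-score within each plate by median and median absolute deviation and median-centred for each miRNA; more negative scores indicate interaction. It was averaged over at least two independent screens. Readings were taken 48 h after HEK293T cells (10,000/well, 96-well plates) were co-transfected by DharmaFECT Duo with 100 ng firefly luc2P 3' UTR reporter, 20 ng Renilla pRL-TK and 2.5 pmol miRNA mimic.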

HRAS = tested on: HRAS
How it was run: as §1

BRCA2 = tested on: BRCA2
How it was run: as §1

TP53 = tested on: TP53
How it was run: as §1

FBXW7 = tested on: FBXW7
How it was run: as §1

RB1 = tested on: RB1
How it was run: as §1

PHOX2B = tested on: PHOX2B
How it was run: as §1

MYC = tested on: MYC
How it was run: as §1

NOTCH1 = tested on: NOTCH1
How it was run: as §1

MYT1L = tested on: MYT1L
How it was run: as §1

MYB = tested on: MYB
How it was run: as §1

MYCN = tested on: MYCN
How it was run: as §1

EZH2 = tested on: EZH2
How it was run: as §1

PHF6 = tested on: PHF6
How it was run: as §1

Row | Sequence | 3' UTR reporter interaction score (ZEB2) | 3' UTR reporter interaction score (HRAS) | 3' UTR reporter interaction score (BRCA2) | 3' UTR reporter interaction score (TP53) | 3' UTR reporter interaction score (FBXW7) | 3' UTR reporter interaction score (RB1) | 3' UTR reporter interaction score (PHOX2B) | 3' UTR reporter interaction score (MYC) | 3' UTR reporter interaction score (NOTCH1) | 3' UTR reporter interaction score (MYT1L) | 3' UTR reporter interaction score (MYB) | 3' UTR reporter interaction score (MYCN) | 3' UTR reporter interaction score (EZH2) | 3' UTR reporter interaction score (PHF6)
1 | UAAGGUGCAUCUAGUGCAGUUA | -0.449 | -0.399 | -0.228 | 0.488 | -0.313 | -0.473 | 0.37 | 0.863 | 0.564 | -0.221 | 0.34 | 0.0551 | 0.311 | -1.71
2 | CAAAGCGCUUCUCUUUAGAGUG | -0.101 | 0.465 | 0.562 | 0.068 | -1.3 | -4.99e-18 | -1.15 | 1.05 | 0.203 | -0.533 | -0.443 | -0.402 | 0.725 | 1.07
3 | CAAAGUUUAAGAUCCUUGAAGU | -0.576 | 0.215 | 0.573 | -0.363 | -0.767 | 0.395 | -2.34 | -0.333 | -0.31 | 0.732 | 0.577 | -0.796 | 0.55 | 0.33
4 | UAGCAGCACAGAAAUAUUGGC | 2.12 | -1.27 | -0.194 | 0.439 | -1.49 | 0.887 | 0.776 | -0.447 | -0.212 | -1.5 | -2.7 | -0.51 | -0.914 | 1.22
5 | UGAGGUAGUAGUUUGUGCUGU | 0.496 | 1.26 | 0.294 | 0.534 | 0.144 | 0.903 | -1.23 | -3 | -0.444 | 0.99 | 1.1 | -3.97 | -4.28 | 0.213
6 | GAUGAGCUCAUUGUAAUAUG | -1.1 | 0.049 | -0.641 | 0.29 | 0.747 | 0.134 | -0.674 | -0.384 | -0.218 | 1.26 | 0.0611 | 0.201 | 0.284 | -0.609
7 | AUUCUGCAUUUUUAGCAAGU | -0.209 | 0.548 | -0.0751 | 0.643 | -2.1 | 0.0642 | -0.262 | 1.31 | -2.14 | -2.22 | 1.56 | 1.34 | 0.847 | 0.263
8 | UAGCACCAUCUGAAAUCGGUU | -0.458 | 0.469 | 0.502 | -0.0665 | -3.02 | -0.626 | -0.351 | 0.338 | 0.229 | -0.146 | 0.702 | -3.08 | 0.717 | -0.0911
9 | CCCAGUGUUUAGACUAUCUGUUC | 0.476 | -0.315 | 0.494 | -0.323 | -0.738 | -0.794 | -0.251 | 0.186 | -0.226 | 1.93 | 0.059 | 0.905 | -0.185 | 0.458
10 | UGAUUGUCCAAACGCAAUUCU | 0.494 | 0.277 | 0.855 | -0.447 | -0.0252 | 0.331 | 0.249 | -2.91 | 0.81 | -0.829 | 0.183 | 0.178 | -0.465 | 1.16
11 | UGUGCUUGCUCGUCCCGCCCGCAG | 0.763 | -0.789 | 0.879 | -0.328 | -0.0879 | 0.514 | 0.4 | 0.429 | 0.256 | 0.198 | -0.522 | -0.114 | -0.199 | 1.4
12 | AAACCUGUGUUGUUCAAGAGUC | -1.07 | 0.374 | 1.31 | 0.0666 | 0.0167 | -0.803 | -2.54 | -0.2 | 0.0529 | -0.496 | -0.47 | -0.75 | 0.928 | -0.148
13 | UAUGGCACUGGUAGAAUUCACUG | -2.1 | -0.187 | 0.00324 | -0.0687 | 0.255 | -0.628 | 0.374 | 0.422 | -0.295 | 0.00898 | 0.482 | 0.735 | 0.196 | -1.31
14 | UUCCCUUUGUCAUCCUAUGCCU | 0.832 | -0.0998 | 0.265 | -0.382 | -1.78 | 0.112 | -5.45 | -0.0967 | -0.728 | -0.655 | 0.747 | 0.146 | 0.404 | 2.55
15 | AUCGUGCAUCCCUUUAGAGUGUU | -2.08 | -0.945 | 0.348 | -0.928 | 0.0524 | 0.943 | -0.0114 | -0.211 | -0.525 | 0.0982 | 0.132 | 0.792 | 0.461 | 1.97
16 | GACCUGGACAUGUUUGUGCCCAGU | 2.18 | -0.318 | 0.214 | -0.242 | 0.534 | -0.469 | 0.605 | -0.104 | -0.107 | 0.464 | -0.217 | 0.492 | -0.0513 | 0.792
17 | UACAGUAGUCUGCACAUUGGUU | 1.83 | -0.926 | 0.551 | -1.16 | 0.408 | 2 | -0.571 | 0.385 | -0.605 | 3.26 | -0.118 | 0.292 | -0.827 | -0.669
18 | UCUACAGUGCACGUGUCU | 0 | -0.193 | -0.808 | 0.119 | -0.208 | 0.634 | 1.13 | -0.224 | -0.268 | 0.894 | 0.507 | 0.872 | -0.132 | -1.18
19 | CCACACCGUAUCUGACACUUU | 1.51 | -0.828 | -0.654 | 0.0153 | 0.287 | 0.211 | 0.567 | -1.37 | -0.439 | 0.0842 | -0.254 | 0.101 | -0.643 | 0.504
